pIC50, pKi: −log10 of the molar value. Entries after “also recorded” stand apart in the source; their conditions may differ. Where two headings read alike, the source gives them in different places.
Experiments:
[1] = test system: human neutrophils (live PMN's); assay: Neutrophil (PMN + 0.5 nM PMA)-mediated R22-ECM hydrolysis (3H-proline cpm released in 6 h); type: cell-based
Source text: The activity of various tetracyclines was investigated employing an in vitro assay of inflammatory tissue injury in which human neutrophils are allowed to degrade a biosynthetically prepared complete interstitial stromal extracellular matrix (ECM). A neutrophil is one type of leukocyte (polymorphonuclear leukocyte). […] E. J. Roemer, K. J. Stanton, and S. R. Simon, "In Vitro Assay Systems for Inflammatory Cell-Mediated Damage to Interstitial Extracellular Matrix," In Vitro Toxicol. 7,75-81 (1994); E. J. Roemer, K. J. Stanton, and S. R. Simon, "In Vitro Assay Systems for Cell Interactions With Interstitial Extracellular Matrix," In Vitro Toxicol. 7,209-224 (1994).
The serine proteinase inhibiting activity of tetracyclines was tested using an in vitro assay of inflammatory tissue injury in which human neutrophils (live PMN's) were allowed to degrade a biosynthetically prepared complete interstitial stromal extracellular matrix (ECM) produced by cultured R22 rat heart smooth muscle cells as described by Roemer et al. (E. J. Roemer, K. J. Stanton, and S. R. Simon, "In Vitro Assay Systems for Inflammatory Cell-Mediated Damage to Interstitial Extracellular Matrix," In Vitro Toxicol. 7,75-81 (1994); E. J. Roemer, K. J. Stanton, and S. R. Simon, "In Vitro Assay Systems for Cell Interactions With Interstitial Extracellular Matrix," In Vitro Toxicol. 7,209-224 (1994)). Ten different chemically modified tetracyclines (CMTs) designated CMT-1 through CMT-10 and doxycycline, at concentrations ranging from 5 μM to 50 μM, were added to the ECM simultaneously with a suspension of 2×10^6 viable human PMN/mL in Hank's balanced salts solution (HBSS). In these studies, the ECM was metabolically radiolabeled with ^3 H-proline, and counts solubilized after six hours of incubation were measured and compared with counts released after incubation with PMN alone.

[2] = target: T1, human leukocyte elastase (HLE) (Homo sapiens, UniProt P08246); assay: ECM degradation mediated by purified HLE; type: biochemical
T1 sequence (P08246 30-267): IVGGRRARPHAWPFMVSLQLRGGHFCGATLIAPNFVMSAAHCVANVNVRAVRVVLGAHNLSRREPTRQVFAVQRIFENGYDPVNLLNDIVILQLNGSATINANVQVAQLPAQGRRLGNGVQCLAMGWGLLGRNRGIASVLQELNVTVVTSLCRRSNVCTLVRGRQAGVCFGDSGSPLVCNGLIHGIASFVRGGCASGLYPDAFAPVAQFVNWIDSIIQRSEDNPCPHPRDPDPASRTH
Method: Direct inhibition of HLE by CMT-3 was determined (Example 2) using a modification of the assay of human leukocyte elastase (HLE) activity described by Ying et al. (Q. Ying, A. R. Rinehart, S. R. Simon, and J. C. Cheronis, "Inhibition of Human Leukocyte Elastase by Ursolic Acid: Evidence for a Hydrophobic Binding Site for Pentacyclic Triterpenes," Biochem. J. 277, 521-526 (1991)) in which the organic solvent and detergent concentrations have been reduced, using a traditional assay of human leukocyte elastase (HLE) activity by measurement of the amidolysis of the chromogenic oligopeptide substrate, methoxysuccinyl-Ala-Ala-Pro-Val-p-nitroanilide. This oligopeptide is generally assumed to occupy the first five subsites of the extended substrate binding domain in HLE. […] When CMT-3 is employed in the assay of ECM degradation mediated by purified HLE rather than live neutrophils, it proves to be an effective inhibitor, with an apparent I50 of ~25-50 μM.
The capacity of CMT-3 to inhibit HLE is not confined to amidolytic assays, as already shown in FIG. 2, in which the degradation of a complete interstitial extracellular matrix by purified HLE is inhibited by CMT-3.

[3] = target: T1, human leukocyte elastase (HLE); assay: HLE amidolytic activity (methoxysuccinyl-Ala-Ala-Pro-Val-p-nitroanilide); type: biochemical
Source text: This oligopeptide is generally assumed to occupy the first five subsites of the extended substrate binding domain in HLE.
To avoid time-dependent adsorption of HLE onto the wells of the 96-well microplates used in the amidolytic assays, the plates were pretreated with a solution of 0.2% bovine serum albumin. […] The […] concentration at which the Dixon plots intersect is a measure of Ki for the inhibitor.
The inhibitory activity of doxycycline towards amidolysis of methoxysuccinyl-Ala-Ala-Pro-Val-p-nitroanilide by HLE was also determined in the presence of 2% DMSO and no detergent, as described above for CMT-3.

leukocyte elastase [4] = assay: Leukocyte elastase activity in gingival extracts of LPS-injected rats; type: in vivo, rat; conditions: 2 mg or 5 mg CMT-3 daily, oral gavage, six days, succinyl-Ala-Ala-Ala-p-nitroanilide
Method: Rats received 0.01 mg of E. coli lipopolysaccharide (LPS) or only a vehicle of saline injected in a volume of 10 μl into the maxillary and mandibular labial gingiva on alternate days for a period of six days. Two sets of rats also received 2 mg or 5 mg CMT-3 daily in a volume of 1 ml, administered by oral gavage, for the six day period, while the other sets of rats received only the vehicle of 2% carboxymethylcellulose. At the end of the six day treatment period, the animals were sacrificed and the gingival tissues were dissected. The tissues from each experimental group were pooled, frozen and thawed, and extracted for assays of enzymatic activity according to the procedure of Yu et al. (Z. Yu, N. S. Ramamurthy, M. Leung, K. M. Chang, T. F. McNamara, and L. M. Golub, "Chemically Modified Tetracycline Normalizes Collagen Metabolism in Diabetic Rats," J. Periodont. Res. 28, 420-428 (1993)). Leukocyte elastase activity was assayed using the substrate succinyl-Ala-Ala-Ala-p-nitroanilide according to the procedure of Ramamurthy and Golub (1983) (N. S. Ramamurthy, and L. M. Golub, "Diabetes Increases Collagenase Activity in Extracts of Rat Gingiva and Skin," J. Periodont. Res. 18, 23-30 (1983)). The finding reported here is the capacity of orally administered CMT-3 to reduce the level of leukocyte elastase activity in the gingival extracts of LPS-injected rats. […]

leukocyte elastase [5] = target: T2, leukocyte elastase (Homo sapiens, UniProt P08246); assay: Leukocyte elastase inhibitory activity; type: biochemical
T2 sequence (P08246 30-247): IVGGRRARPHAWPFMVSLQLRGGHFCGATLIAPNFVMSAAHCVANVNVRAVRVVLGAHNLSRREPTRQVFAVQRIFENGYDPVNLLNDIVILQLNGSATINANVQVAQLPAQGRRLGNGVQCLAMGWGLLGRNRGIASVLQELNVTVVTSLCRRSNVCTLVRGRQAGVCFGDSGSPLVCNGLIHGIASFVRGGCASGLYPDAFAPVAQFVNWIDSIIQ

[6] = target: T1, human leukocyte elastase (HLE); assay: HLE amidolytic activity (methoxysuccinyl-Ala-Ala-Pro-Val-p-nitroanilide); type: biochemical; conditions: in the presence of 10% dimethylsulfoxide and 0.1% Triton X-100

pIC50 ([2]; purified HLE rather than live neutrophils, read-out: apparent I50, ECM degradation mediated by purified HLE): 4.30 to 4.60
pKi ([3]; 2% DMSO, no detergent, 100 μM through 300 μM substrate, Dixon plot, read-out: Ki for inhibition of amidolytic activity of HLE): 4.40 to 4.60
mechanism of inhibition of HLE amidolytic activity ([3]; Dixon and Cornish-Bowden plots): predominantly competitive inhibitor
pKi ([3]; Dixon and Cornish-Bowden plots, FIGS. 3-5, read-out: apparent K1, inhibition of amidolysis): 4.40 to 4.74
inhibitory potency, HLE amidolytic activity, in words [6]: markedly reduced
SMILES: NC(=O)C1=C(O)C2(O)C(=O)C3=C(O)c4c(O)cccc4CC3CC2CC1=O (stereo not drawn) [CMT-3, 6-demethyl-6-deoxy-4-de(dimethylamino)tetracycline]
inhibition of neutrophil-mediated ECM degradation [1]: ~ 50%
capacity to inhibit ECM degradation (protecting the ECM from neutrophil-mediated destruction), in words ([1]; 30 μM, FIG. 1): far superior to other tetracyclines in protecting the ECM from neutrophil-mediated destruction
inhibition of ECM degradation, in words ([1]; 5-50 μM, Table 1 and FIG. 1): good inhibition of ECM degradation at all doses employed in this assay
inhibition of neutrophil-mediated ECM degradation ([1]; 25-50 μM, dose response studies): approximately 50%
activity at 5 µM ([1]; Homo sapiens, Neutrophil, 5 μm, control = hydrolysis in absence of any inhibitor normalized to 100%, 6 h at 37° C.): 69%
activity at 25 µM ([1]; Homo sapiens, Neutrophil, 25 μm, control = hydrolysis in absence of any inhibitor normalized to 100%, 6 h at 37° C.): 55%
activity at 50 µM ([1]; Homo sapiens, Neutrophil, 50 μm, control = hydrolysis in absence of any inhibitor normalized to 100%, 6 h at 37° C.): 50%
inhibition of HLE-mediated degradation of ECM, in words ([2]; FIG. 2: 25 μM CMT-3, 10 μM purified HLE, compared with PMN, other tetracyclines at comparable doses): comparable inhibition of human neutrophil-mediated and human leukocyte elastase-mediated degradation of extracellular matrix; also recorded: comparable to that determined from the assays of HLE amidolytic activity
leukocyte elastase activity in gingival extracts, in words (leukocyte elastase [4]): reduced the activity of leukocyte elastase; also recorded: to the levels detected in animals receiving gingival injections of saline solution alone
leukocyte elastase inhibitory activity, in words (leukocyte elastase [5]): substantial leukocyte elastase inhibitory activity

— patent US5773430A, “Serine proteinase inhibitory activity by hydrophobic tetracycline” (Research Foundation of State University of New York, priority 1997, dated 1998)
